Values quoted from earlier work, collected in patent publication US20240156798A1, “ANTIOXIDANT COMPOSITIONS AND METHODS OF USE” (Sanare Pharmaceuticals, priority 2022, published 2024).
“Also recorded” adds a separate entry of the source. Where two headings read alike, the source gives them in different places.

Tests used:
[1] = hundreds of animal models
ocular damage [2] = details: topical application, rhesus monkey
[3] = test system: radiation induced alopecia; details: topical, human clinical trials
ocular damage [4] = details: topical application, rat
[5] = test system: chemically induced colitis; details: in vivo
[6] = test system: high fat diet induced NAFLD; details: for high fat diet induced NAFLD: mice fed a high fat diet
[7] = test system: experimentally induced glaucoma; details: C57BL/6J mice
[8] = test system: normal tension glaucoma (NTG)
IBD = details: 168 patients, double blind, placebo-controlled
[9] = test system: photo-induced retinal degeneration; details: intraperitoneal injection
[10] = test system: human retinal pigment epithelium (RPE)
[11] = test system: acetic acid-induced experimental colitis; details: NAC 100 mg/kg for seven days
dry eye = details: eye drop administration
[12] = test system: retinal ganglion cell (RCG) death after optic nerve crush
U.C. = U.C. patients, open label
retinal degeneration = details: several models of neurodegeneration and damage, including retinal degeneration
ocular alkali burn = details: in vivo
[13] = RPE from both positive and negative AMD donors
[14] = systemic treatment, following optic nerve crush

4-hydroxy-2,2,6,6-tetramethylpiperidin-1-oxyl [TEMPOL]
safety concerns [1]: No safety concerns | Glutathione S-Transferase (GST) gene(s) expression (gene expression): significantly increased | TNFα regulation (gene expression): downregulates | expression levels of keratinocyte growth factor (KGF) gene (gene expression): statistically increased | expression of HIF-1α (gene expression): statistically decreased | expression of HIF-2α (gene expression): statistically decreased | expression of genes encoding for the 26s proteasome complex (gene expression): significantly decreased | expression of the ADIPOQ gene (gene expression): statistically increased | UNC5b (gene expression; cancer cells): significantly increases | ocular damage (ocular damage [2]): decrease | radiation induced alopecia [3]: protect | ocular damage (ocular damage [4]): decrease | degree of both neutrophil inflammation and lipid peroxidation in the inflamed bowel [5]: Reduction in the degree of both neutrophil | high fat diet induced NAFLD [6]: Can treat and prevent NAFLD in mice | neuro-inflammation in the ocular hypertensive retina and optic nerve [7]: decreased

CC(=O)N[C@@H](CS)C(=O)O [NAC, N-acetyl-cysteine]
glutathione levels ([8]; EAAC1 KO mice): increased | oxidative stress and autophagy ([8]; EAAC1 KO mice): suppressed | effect on retinal degeneration ([8]; mouse model of NTG): protective effect | decline of retinal function ([8]; mouse, in vivo): prevented | retinal ganglion cells (RGC), NTG-like neurodegeneration ([8]; mouse, in vivo): protected | Phase 2 study result (IBD): Positive results in a Phase 2 | oxidation and ER stresses [9]: suppressed | ROS accumulation in the retina ([9]; Balb/c mouse): inhibiting | basal GSH content ([10]; AMD RPE): increase | basal ROS ([10]; AMD RPE): reduction | GSH depletion ([10]; H2O2, RPE from both positive and negative AMD donors): preventing | H2O2 induced cell death [10, 13]: preventing | excessive ROS accumulation [10, 13]: blocking | basal mitochondrial function (ATP) ([10]; both groups of cells): improved | effect on primary cultures of human RPE ([10]; patients with AMD): positive (protective) effect | penetration to the posterior segment (retinitis pigmentosa; applied to the cornea): able to penetrate to the posterior segment | protecting the retina from oxidative damage (retinitis pigmentosa; applied topically to the eye): effective | chemically induced colitis [5]: Protects against chemically induced | glucose tolerance ([6]; HFD mice): improved | morphology of hepatic tissue ([6]; HFD mice): totally restored | hepatic steatosis and metabolic disturbances ([6]; mice fed high fat diets (HFD), compared to normally fed mice): significantly reduced | macroscopic and histological findings [11]: protective role | GSH concentration ([11]; compared to vehicle controls): restoration | NO concentration ([11]; compared to vehicle controls): restoration | colon tissue MPO activity ([11]; compared to vehicle controls): significant decrease | levels of ROS and inflammasome signaling (dry eye): diminished

C[C@H](CCC(=O)NCCS(=O)(=O)O)[C@H]1CC[C@H]2[C@@H]3[C@@H](O)C[C@@H]4C[C@H](O)CC[C@]4(C)[C@H]3CC[C@]12C [TUDCA, tauroursodeoxycholic acid]
retinal ganglion cells in the optic crush model ([12]; in vivo): Protects retinal ganglia cells in the optic; also recorded: Protects retinal ganglion cells in the optic | RCGs survival [12, 14]: significantly enhanced | apoptosis [12, 14]: suppressed | Phase 1 study testing efficacy and safety (U.C.): Positive results in an open label Phase 1; also recorded: Positive results in Phase 1 study testing | apoptosis following cellular injury (retinal degeneration): block | chemically induced colitis [5]: Active against chemically induced colitis | cornea and retina injury (ocular alkali burn): protect | ocular inflammation (ocular alkali burn): inhibit | progression of HFD induced NALFD ([6]; TUDCA alone, mice): attenuate | high fat diet induced NAFLD [6]: markedly reduces | gut inflammation ([6]; mouse, in vivo): attenuates; also recorded: ameliorating | intestinal barrier function ([6]; mouse, in vivo): improves; also recorded: improving | intestinal fat transport ([6]; mouse, in vivo): decreases; also recorded: decreasing | intestinal microbiota composition ([6]; mouse, in vivo): modulates; also recorded: modulating
